Reference: PubChem BioAssay AID489026 (Sanford-Burnham Center for Chemical Genomics, 2010)
Activity calls are given as the source filed them. How the calls were made is not given here.

Tested on: HEK-293T cytotoxicity, luminescence viability
Test: cytotoxicity in HEK-293T cells, dose response, cytotoxicity control, luminescence, T-cell screen hits (AID 489026)

| SMILES | IC50 |
| --- | --- |
| C=C(C=O)C[C@@H]1C[C@H](O)C2OC3C[C@]4(C)OC5/C=C\CC6OC7C(CC=CCC6OC5CCCC4OC3CC2O1)OC1CC2OC3CC(=O)OC3C[C@@H](C)C[C@@]2(C)OC1C[C@@H]7C (some centres not stated) | 39.8 µM (inactive) |
| C[C@@H]1O[C@@H](O[C@H]2C[C@@H](O)[C@]3(CO)[C@@H]4C(CC[C@]3(O)C2)[C@@]2(O)CC[C@H](C3COC(=O)C3)[C@@]2(C)C[C@H]4O)[C@H](O)[C@H](O)[C@H]1O (some centres not stated) | > 80 µM (inactive) |
